According to US20040248887A1, “Inhibitors of cathepsin S” (IRM LLC, priority 2003, published 2004):
Read-outs that look alike come from different tables or passages of the source. One block for each compound: values may come before it.

Key:
Type in all cases: biochemical
Cathepsin S = Cathepsin S (Homo sapiens, UniProt P25774); assay: Cathepsin S inhibition, fluorogenic peptide substrate kinetic assay; settings: Cathepsin S inhibition constant, pH5.5, read-out: Ki Cat. S
In short: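 Ki values derive from apparent constants fitted to progress curves, corrected for competition with substrate via [S] and Km. Kinetics were monitored at 380 nm excitation/450 nm emission, after substrate addition (Ac-HPVK-ACC, 50 μM final) to start the reaction.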

Cathepsin K = target: T1, Cathepsin K (Homo sapiens, UniProt P43235); assay: Cathepsin K inhibition, fluorogenic peptide substrate kinetic assay; settings: Table III; Cathepsin K inhibition constant, pH5.5; read-out: Ki Cat. K
T1 sequence (P43235 115-329): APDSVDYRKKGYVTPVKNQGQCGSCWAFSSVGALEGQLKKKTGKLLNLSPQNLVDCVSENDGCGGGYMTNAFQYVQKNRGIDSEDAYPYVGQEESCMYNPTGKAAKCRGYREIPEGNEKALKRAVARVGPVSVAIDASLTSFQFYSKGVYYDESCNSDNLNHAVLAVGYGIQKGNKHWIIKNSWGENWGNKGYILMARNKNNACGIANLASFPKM
Protocol: (§1) The optimal substrate for cathepsin K, acetyl-lysine-histidine-proline-lysine-amino carbamoyl coumarin, was identified from screening a combinatorial library of fluorogenic peptide substrates (Harris, J. L., B. J. Backes, et al., Proc Natl Acad Sci U S A 2000, 97(14), 7754-9). Kinetic measurements are performed in a total reaction volume of 30 μl in 384-well microtiter plates. […] The reactions are initiated by adding the substrate, acetyl-lysine-histidine-proline-lysine-amino carbamoyl coumarin, to a final concentration of 40 μM. The rate of substrate hydrolysis is measured by monitoring the increase in fluorescence at an excitation wavelength of 380 nm and an emission wavelength of 450 nm that results from cleavage of the aniline bond in the substrate by the enzyme. The apparent inhibition constants for the compounds are determined from the enzyme progress curves (Kuzmic, P., K. C. Elrod, et al., Anal Biochem 2000, 286(1), 45-50) and are then used to calculate the inhibition constants for competitive inhibitors.

Cathepsin L = Cathepsin L (Homo sapiens, UniProt P07711); assay: Cathepsin L inhibition, fluorogenic peptide substrate kinetic assay; settings: Table III; Cathepsin L inhibition constant, pH5.5; read-out: Ki Cat. L
Cathepsin L, sequence (P07711 114-333, species assumed): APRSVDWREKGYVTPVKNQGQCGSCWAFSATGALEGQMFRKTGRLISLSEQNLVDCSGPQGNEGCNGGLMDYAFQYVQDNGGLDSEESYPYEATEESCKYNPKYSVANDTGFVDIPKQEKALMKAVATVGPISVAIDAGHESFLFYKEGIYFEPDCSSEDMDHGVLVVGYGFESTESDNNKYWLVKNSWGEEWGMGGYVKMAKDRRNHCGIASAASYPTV
Protocol: as §1, with “Kinetic” for “The optimal substrate for cathepsin K, acetyl-lysine-histidine-proline-lysine-amino carbamoyl coumarin, was identified from screening a combinatorial library of fluorogenic peptide substrates (Harris, J. L., B. J. Backes, et al., Proc Natl Acad Sci U S A 2000, 97(14), 7754-9). Kinetic”, “acetyl-histidine-lysine-phenylalanine-lysine-amino” for “acetyl-lysine-histidine-proline-lysine-amino”, “20” for “40”

Cathepsin B = Cathepsin B (Homo sapiens, UniProt P07858); assay: Cathepsin B inhibition, fluorogenic peptide substrate kinetic assay; settings: Table III; Cathepsin B inhibition constant, pH5.5; read-out: Ki Cat. B
Protocol: The optimal substrate for cathepsin B, acetyl-histidine-proline-valine-lysine-amino carbamoyl coumarin, was identified from screening a combinatorial library of fluorogenic peptide substrates (Harris, J. L., B. J. Backes, et al., Proc Natl Acad Sci USA 2000, 97(14), 7754-9). Kinetic measurements are performed in a total reaction volume of 30 μl in 384-well microtiter plates. Cathepsin B, at a final concentration of 1.5 nM (active site), is incubated with the compounds at twelve varying concentrations in a buffer containing 100 mM NaAc (pH5.5), 1 mM EDTA, 100 mM NaCl, 0.01% Brij-35 for 20 minutes at room temperature. Control reactions in the absence of inhibitor are performed in replicates of 24. The reactions are initiated by adding the substrate, acetyl-histidine-proline-valine-lysine-amino carbamoyl coumarin, to a final concentration of 10 μM. The rate of substrate hydrolysis is measured by monitoring the increase in fluorescence at an excitation wavelength of 380 nm and an emission wavelength of 450 nm that results from cleavage of the aniline bond in the substrate by the enzyme. The apparent inhibition constants for the compounds are determined from the enzyme progress curves (Kuzmie, P., K. C. Elrod, et al., Anal Biochem 2000, 286(1), 45-50) and are then used to calculate the inhibition constants for competitive inhibitors.

Cathepsin S, sequence (P25774 115-331, species assumed): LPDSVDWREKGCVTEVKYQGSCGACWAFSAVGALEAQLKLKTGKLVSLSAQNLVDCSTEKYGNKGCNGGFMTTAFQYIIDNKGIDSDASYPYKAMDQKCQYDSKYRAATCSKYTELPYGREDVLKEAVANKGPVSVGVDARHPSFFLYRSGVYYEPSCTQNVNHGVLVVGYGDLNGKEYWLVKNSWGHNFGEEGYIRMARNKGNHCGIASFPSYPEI

Compound: CS(=O)(=O)Nc1ccc(C(=O)N[C@@H](CC2CCCCC2)C(=O)NCCN2CCc3cc(F)ccc32)cc1 [Compound 81, N-(S)-{2-cyclohexyl-1-[2-(5-fluoro-2,3-dihydro-indol-1-yl)-ethylcarbamoyl]-ethyl}-4-methanesulfonylamino-benzamide]
Ki (Cathepsin S; Table II): < 0.1 µM | Ki (Cathepsin S; Table III): < 0.1 µM | Ki (Cathepsin K): < 10 µM | Ki (Cathepsin L): < 10 µM | Ki (Cathepsin B): > 10 µM

Compound: O=C(N[C@H](C(=O)N[C@@H](COCc1ccccc1)CN1CCc2cc(F)ccc21)c1ccc(Cl)cc1Cl)c1ccc(F)c(F)c1 [Compound 211, N-(S)-((3-(benzyloxy)-1-(5-fluoroindolin-1-yl)propan-2-(R)-ylcarbamoyl)(2,4-dichlorophenyl)methyl)-3,4-difluorobenzamide]
Ki (Cathepsin S; Table II): < 0.1 µM | Ki (Cathepsin S; Table III): < 0.1 µM | Ki (Cathepsin K): > 10 µM | Ki (Cathepsin L): < 10 µM | Ki (Cathepsin B): > 10 µM

Compound: CC(C(=O)N[C@@H](CC1CCCCC1)C(=O)NCCN1CCc2cc(F)ccc21)c1ccc(O)cc1 (stereo partly drawn) [Compound 101, N-{2-cyclohexyl-1-(S)-[2-(5-fluoro-2,3-dihydro-indol-1-yl)-ethylcarbamoyl]-ethyl}-2-(4-hydroxy-phenyl)-propionamide]
Ki (Cathepsin S; Table II): < 0.1 µM | Ki (Cathepsin S; Table III): < 0.1 µM | Ki (Cathepsin K): > 10 µM | Ki (Cathepsin L): < 10 µM | Ki (Cathepsin B): > 10 µM

Compound: Cn1nc(C(F)(F)F)cc1-c1ccc(S(=O)(=O)N[C@@H](CC2CCCCC2)C(=O)NCCN2CCc3cc(F)ccc32)s1 [Compound 231, (S)-3-Cyclohexyl-N-[2-(5-fluoro-2,3-dihydro-indol-1-yl)-ethyl]-2-[5-(2-methyl-5-trifluoromethyl-2H-pyrazol-3-yl)-thiophene-2-sulfonylamino]-propionamide]
Ki (Cathepsin S; Table II): < 0.1 µM | Ki (Cathepsin S; Table III): < 0.1 µM | Ki (Cathepsin K): > 10 µM | Ki (Cathepsin L): > 10 µM | Ki (Cathepsin B): > 10 µM

Compound: Cc1ccccc1C(C)C(=O)N[C@@H](CC1CCCCC1)C(=O)NCCN1CCc2cc(F)ccc21 (stereo partly drawn) [Compound 61, N-{2-cyclohexyl-1-(S)-[2-(5-fluoro-2,3-dihydro-indol-1-yl)-ethylcarbamoyl]-ethyl}-2-o-tolyl-propionamide]
Ki (Cathepsin S; Table II): < 0.1 µM | Ki (Cathepsin S; Table III): < 0.1 µM | Ki (Cathepsin K): > 10 µM | Ki (Cathepsin L): < 0.1 µM | Ki (Cathepsin B): > 10 µM

Compound: C[C@@H](CNc1cccc(C(N)=O)c1)NC(=O)[C@H](CC(C)(C)C)NC(=O)c1ccc(-c2cccc(F)c2)o1 [Compound 131, 5-(3-Fluoro-phenyl)-furan-2-carboxylic acid {1-(S)-[2-(3-carbamoyl-phenylamino)-1-(S)-methyl-ethylcarbamoyl]-3,3-dimethyl-butyl}-amide]
Ki (Cathepsin S; Table II): < 0.1 µM | Ki (Cathepsin S; Table III): < 0.1 µM | Ki (Cathepsin K): < 1 µM | Ki (Cathepsin L): > 10 µM | Ki (Cathepsin B): > 10 µM

Compound: COc1ccc(NCC(C)NC(=O)[C@H](CC(C)C)NC(=O)c2cccc(C)c2)cc1 (mixture of isomers) [Compound 21, N-{1-(S)-[2-(4-Methoxy-phenylamino)-1-methyl-ethylcarbamoyl]-3-methyl-butyl}-3-methyl-benzamide]
Ki (Cathepsin B): > 10 µM

Compound: C[C@@H](CNc1ccc(OC(F)(F)F)cc1)NC(=O)[C@H](CC1CCCCC1)NC(=O)c1cnn(-c2cccc(F)c2)c1 [Compound 141, 1-(3-Fluoro-phenyl)-1H-pyrazole-4-carboxylic acid {2-cyclohexyl-1-(S)-[1-(S)-methyl-2-(4-trifluoromethoxy-phenylamino)-ethylcarbamoyl]-ethyl}-amide]
Ki (Cathepsin S; Table II): < 0.1 µM | Ki (Cathepsin S; Table III): < 0.1 µM | Ki (Cathepsin K): > 10 µM | Ki (Cathepsin L): < 10 µM | Ki (Cathepsin B): > 10 µM

Compound: COc1cccc(C(=O)N[C@@H](CCC2CCCCC2)C(=O)N[C@H](CN2CCc3cc(F)ccc32)c2ccccc2)c1 [Compound 51, (S,S)-N-{3-Cyclohexyl-1-[2-(5-fluoro-2,3-dihydro-indol-1-yl)-1-phenyl-ethylcarbamoyl]-propyl}-3-methoxy-benzamide]
Ki (Cathepsin B): > 10 µM

More lines, now with the values ahead:

Ki (Cathepsin S; Table II): < 1 µM | Ki (Cathepsin S; Table III): < 1 µM | Ki (Cathepsin K): > 10 µM | Ki (Cathepsin L): < 10 µM | Ki (Cathepsin B): > 10 µM
Compound: Cc1nn(C)c(Cl)c1S(=O)(=O)N[C@@H](CC1CCCCC1)C(=O)NCCN1CCc2cc(F)ccc21 [Compound 241, (S)-2-(5-Chloro-1,3-dimethyl-1H-pyrazole-4-sulfonylamino)-3-cyclohexyl-N-[2-(5-fluoro-2,3-dihydro-indol-1-yl)-ethyl]-propionamide]

Ki (Cathepsin S; Table II): < 10 µM | Ki (Cathepsin S; Table III): < 10 µM | Ki (Cathepsin K): < 10 µM | Ki (Cathepsin L): < 1 µM | Ki (Cathepsin B): > 10 µM
Compound: COc1ccc(N2CCC[C@H](NC(=O)[C@H](CC(C)C)NC(=O)c3cccc(C)c3)C2)cc1 (single isomer, unassigned) [Compound 31]

Ki (Cathepsin S; Table II): < 1 µM | Ki (Cathepsin S; Table III): < 1 µM | Ki (Cathepsin K): > 10 µM | Ki (Cathepsin L): > 10 µM | Ki (Cathepsin B): > 10 µM
Compound: Cc1noc(C)c1NC(=O)N[C@@H](CC1CCCCC1)C(=O)NCCN1CCc2cc(F)ccc21 [Compound 221]

Ki (Cathepsin S; Table II): < 0.1 µM | Ki (Cathepsin S; Table III): < 0.1 µM | Ki (Cathepsin K): < 10 µM | Ki (Cathepsin L): < 1 µM | Ki (Cathepsin B): > 10 µM
Compound: Cc1cccc(C(=O)N[C@@H](CC2CCCC2)C(=O)NCCN2CCc3cc(F)ccc32)c1 [Compound 201, (S)-N-{2-Cyclopentyl-1-[2-(5-fluoro-2,3-dihydro-indol-1-yl)-ethylcarbamoyl]-ethyl}-3-methyl-benzamide]

Ki (Cathepsin S; Table II): < 0.1 µM | Ki (Cathepsin S; Table III): < 0.1 µM | Ki (Cathepsin K): < 10 µM | Ki (Cathepsin L): > 10 µM | Ki (Cathepsin B): > 10 µM
Compound: C[C@@H](CNc1ccc(OC(F)(F)F)cc1)NC(=O)[C@H](CC1CCCC1)NC(=O)O[C@@H]1CCOC1 [Compound 191, (S,S)-{2-Cyclopentyl-1-[1-methyl-2-(4-trifluoromethoxy-phenylamino)-ethylcarbamoyl]-ethyl}-carbamic acid tetrahydrofuran-3-(R)-yl ester]

Ki (Cathepsin S; Table II): < 0.1 µM | Ki (Cathepsin S; Table III): < 0.1 µM | Ki (Cathepsin K): > 10 µM | Ki (Cathepsin L): < 1 µM | Ki (Cathepsin B): < 1 µM
Compound: O=C(NC(CCC1CCCCC1)C(=O)NC(COCc1ccccc1)CN1CCc2cc(F)ccc21)c1cc2ccccc2[nH]1 (mixture of isomers) [Compound 41, 1H-Indole-2-carboxylic acid {(1S)-[2-benzyloxy-(1R)-(5-fluoro-2,3-dihydro-indol-1-ylmethyl)-ethylcarbamoyl]-3-cyclohexyl-propyl}-amide]

Ki (Cathepsin S; Table II): < 1 µM | Ki (Cathepsin S; Table III): < 1 µM | Ki (Cathepsin K): < 10 µM | Ki (Cathepsin L): < 10 µM | Ki (Cathepsin B): < 10 µM
Compound: C[C@@H](CNc1ccccc1C(N)=O)NC(=O)[C@H](CC1CCCCC1)NC(=O)c1ccc(-c2cccc(F)c2)o1 [Compound 121, 5-(3-Fluoro-phenyl)-furan-2-carboxylic acid {1-(S)-[2-(2-carbamoyl-phenylamino)-1-(S)-methyl-ethylcarbamoyl]-2-cyclohexyl-ethyl}-amide]

Ki (Cathepsin S; Table II): < 0.1 µM | Ki (Cathepsin S; Table III): < 0.1 µM | Ki (Cathepsin K): < 10 µM | Ki (Cathepsin L): < 1 µM | Ki (Cathepsin B): < 10 µM
Compound: C[C@@H](CNc1cc(F)ccc1F)NC(=O)[C@H](CC1CCCCC1)NC(=O)c1ccc(-c2cccc(F)c2)o1 [Compound 91, 5-(3-Fluoro-phenyl)-furan-2-carboxylic acid {2-cyclohexyl-1-(S)-[2-(2,5-difluoro-phenylamino)-1-(S)-methyl-ethylcarbamoyl]-ethyl}-amide]
